Experiments:
Gabrb3^ECKO mice = test: Nest building (nestlets and shredded paper); format: in vivo, mouse
Procedure: Behavioral Experiments: Mice were housed in our animal facility with a 12-hour light cycle with ad libitum access to food and water. Offspring stayed with their mothers until weaning at PND 21 after which males and females were separated. Before all behavioral testing, mice were acclimated to the testing room for 1 hour. Behavioral assays were performed according to established protocols referenced here: self-grooming, light-dark box, tail suspension test, Y-maze, open field locomotion activity, three chamber social interaction test and nest building with nestlets and with shredded paper. Both males and females were used for all behavioral assays. Experimenters scoring behaviors were blinded to the genotypes and treatment. Sample sizes for each assay are noted in figure legends.
Therefore, behavioral tests were performed to screen for stress, anxiety, locomotion, cognition, and sociability in saline-treated Gabrb3^fl/fl mice, saline-treated Gabrb3^ECKO mice and NAD^+-treated Gabrb3^ECKO mice. Mice from saline and NAD^+-treated groups were housed individually in cages containing wood chip bedding and two nestlets (pressed cotton) (FIGS. 16A-16D) or more naturalistic material like shredded paper strips (FIGS. 16E-16H). […] This rescue of home cage social behavior was a robust indication of well-being in NAD^+-treated Gabrb3^ECKO mice. […]

[1] = tested on: periventricular endothelial cells isolated from E15 wildtype (CD1) forebrain; test: Endothelial cell proliferation in culture (confluency, BrdU labeling index); format: cell-based, mouse
Procedure: (§1) Primary culture of endothelial cells and endothelial cell staining: Embryonic brains were dissected under a stereo-microscope, after the NAD^+ treatment paradigm and the telencephalon was removed. Pial membranes were peeled off. Telencephalon without pial membranes from the periventricular region was pooled. Purity of endothelial cell cultures was established with endothelial cell markers and determined to be one hundred percent. Isolation and culture of endothelial cells were performed according to published methodology. Periventricular endothelial cells were prepared from CD1 (wild type), saline-treated Gabrb3^fl/fl, saline-treated Gabrb3^ECKO, and NAD^+-treated Gabrb3^ECKO embryos. Endothelial cells were labeled with anti-biotinylated isolectinB4 (1:100, Sigma), anti-GABA (1:400, Sigma), anti-DAXX (1:100, Santa Cruz Biotechnology) and anti-P2X4 (1:100, Abclonal) followed by secondary detection with AlexaFluor conjugates (Invitrogen). DAPI (Invitrogen) was used to label nuclei. Images were taken on an FSX100 microscope (Olympus). 1 million cells were examined for each immunohistochemistry condition.
Endothelial cell proliferation and long-distance cell migration assay: To test for cell proliferation, CD1 periventricular endothelial cells (1 million cells per experiment) were incubated in the presence of the mitotic marker 5-bromo-2′-deoxyuridine (0.05% BrdU) with or without muscimol, for 1 hour to examine the impact on proliferation of these cells and processed for BrdU immunohistochemistry.
In one experiment, periventricular endothelial cells were isolated from E15 wildtype (CD1) forebrain and tested the effect of NAD^+ addition in vitro. Exogenous addition of 100 μM NAD^+ was able to initiate significant endothelial cell proliferation within 2 days of culture and a 35 mm culture dish was confluent within 4-6 days (FIGS. 2A-2D). This was an interesting observation, since untreated periventricular endothelial cells take approximately 12 days to reach confluency in 35mm dishes, in our well-established culture conditions. […] Vital elements of angiogenesis include effective endothelial cell proliferation, migration, sprouting, alignment, tube formation and branching. […] In some areas of the dish, the NAD^+-treated endothelial cells seemed to align and fold into tubular shapes (FIG. 2H), aspects that we have not seen in wild type or untreated periventricular endothelial cells in normal culture conditions.
Effects of NAD^+ addition to periventricular endothelial cells isolated from E15 wildtype (CD1) forebrain was more robust than GABA. (FIGS. 17A-17F) Phase contrast images of periventricular endothelial cells cultured from E15 CD1 forebrain at different time points in untreated conditions (FIGS. 17A-17B) or after plating with NAD^+ addition (100 μM; FIGS. 17C-17D) or GABA addition (5 μM; FIGS. 17E-17F). […] (FIG. 17G) All groups of periventricular endothelial cells were exposed to BrdU (1 mM BrdU per ml medium) for 1 hour followed by Isolectin B4/BrdU double labeling. Quantification of BrdU labeling indices; Data represents mean±SD (n=8, *P<0.05; Student's t-test).

GAD65-GFP knock in mice = test: E12-E17 NAD+ injection paradigm in GAD65-GFP knock in mice; format: in vivo, mouse; conditions: E18, vs NAD^+-untreated group
Source text: Animals: Timed pregnant CD1 mice were purchased from Charles River laboratories, MA. Colonies of GAD65-GFP mice were maintained in our institutional animal facility. Tie2-cre mice and Gabrb3 floxed (Gabrb3^fl/fl) mice were obtained from Jackson Labs. The Tie2-cre transgene is known for uniform expression of cre-recombinase in endothelial cells during embryogenesis and adulthood. To selectively delete Gabrb3 in endothelial cells, Tie2-cre transgenic mice (males) were crossed to Gabrb3^fl/fl mice (females) to generate Tie2-cre; Gabrb3^fl/+ mice (males). These were further crossed with Gabrb3^fl/fl mice (females) to obtain the Gabrb3 conditional knock-outs (Tie2-cre; Gabrb3^fl/fl mice). The day of plug discovery was designated embryonic day 0 (E0). Animal experiments were in full compliance with the NIH Guide for Care and Use of Laboratory Animals and were approved by the HMRI and McLean Institutional Animal Care Committees.
To test if the prenatal NAD^+ treatment was able to influence GABAergic neuronal migration, an in vitro neuronal migration assay was performed (FIG. 6M), after the in vivo NAD^+ treatment paradigm (E12-E17). […] This aspect was further explored by using the E12-E17 NAD^+ injection paradigm in GAD65-GFP knock in mice (FIGS. 6P-6T). Images of GFP^+ cells that had entered the dorsal telencephalon at E18 were collected and analyzed. […]

[2] = tested on: Gabrb3^ECKO endothelial cells; test: GABA immunostaining and cluster formation of endothelial cells after prenatal treatment; format: in vivo, mouse
Procedure: as §1
Endothelial cell derived GABA plays dual roles in the embryonic forebrain. […]

In the case of `NC(=O)c1ccc[n+]([C@@H]2O[C@H](COP(=O)([O-])OP(=O)(O)OC[C@H]3O[C@@H](n4cnc5c(N)ncnc54)[C@H](O)[C@@H]3O)[C@@H](O)[C@H]2O)c1` [NAD^+], the nest building ability (Gabrb3^ECKO mice) is reported as “significant improvement in their nest building ability”, the “endothelial cell proliferation (phase contrast)” value ([1]; 100 μM) is reported as “Robust proliferation” and the “time to initiate significant endothelial cell proliferation” value ([1]; 100 μM NAD^+, days of culture) is reported as no more than 2 days. For the same molecule, the “time until 35 mm culture dish was confluent” value ([1]; 100 μM NAD^+, untreated cells approximately 12 days) was 4 to 6 days, the “endothelial cell BrdU labeling index” value ([1]; NAD^+ addition vs untreated) was “significantly increased” and the “percentage of GFP^+ cells in dorsal telencephalon” value (GAD65-GFP knock in mice) was “significant increase in the percentage of GFP^+ cells”. The “GABA expression (immunohistochemistry)” value [2] was “GABA expression was also restored” and the “endothelial cell cluster formation” value [2] was “significantly improved cluster formation”.
